Measurements from patent US12635683B2, “Preservation of natural and bioengineered tissues and methods of storing and transport” (LifeNet Health, priority 2021, dated 2026).

System: Epiderm construct
Experiment: Construct viability after vitrification and rewarming (metabolic activity)
Type: cell-based, human
Settings: αT and QVD added together to culture medium before and after vitrification
Experimental: Tissue Culture: Human epidermal models were obtained from commercial sources and maintained according to their specifications. All constructs were incubated in appropriate media for 24 hours under physiological tissue culture conditions before initiating experiments. Fresh controls were used in each experiment and experimental treatment groups were assessed over 4-5 days post-rewarming.
Vitrification Methods: The constructs were gradually infiltrated with precooled vitrification formulations at 4° C. in six steps with 0%, 12.5%, 25%, 50%, 75% and 100% of each formulation to achieve a final cryoprotectant concentration. After rewarming, the vitrification solution was removed in seven sequential steps at 4° C. into culture medium as previously described (see Song et al., Vitreous cryopreservation maintains the function of vascular grafts, Nature Biotechnology, 8(3):296-9, Epub 2000/03/04, doi:10.1038/73737, PubMed PMID: 10700144 (2000); and Song et al., Vitreous Preservation of Rabbit Articular Cartilage, Cell Preservation Technology, 2 (1); 67-74 (2004)).
Once loaded with vitrification solution the construct can be cooled to storage temperature and rewarmed using several methods. (1) The constructs were placed in glass scintillation vials (Diam.×H, 25 mm×60 mm) containing 1.5 mL of pre-cooled vitrification solution with 0.3 mL solution inside the well insert. Then 1 mL of 2-methylbutane (isopentane, freezing point: −160° C., density: 0.62) was placed on top of the vitrification solution in the vial and 0.2 mL inside the well insert at 4° C. to prevent direct air contact. Samples were cooled rapidly (approximately 45° C./minute) to −100° C. by placing the samples in a pre-cooled bath containing isopentane in a −135° C. mechanical storage freezer. Upon achieving −100° C. the specimens were removed from the bath and stored at −135° C. in the mechanical storage freezer, which results in slow cooling (3° C./minute) to −135° C. The samples were held at −135° C. for a minimum of 24 hours. The constructs were rewarmed in two stages, first, slow warming to −100° C. (approximately 30° C./minute) at the top of the mechanical storage freezer and then rapidly warmed to either 0° C. or ±−10° C. approximately 225° C./min) in a 30% ME2SO bath at room temperature. (2) The constructs in inserts are placed within the well of a deep well plate. There is 0.6 mL vitrification solution in the well and 0.2 mL solution in the insert. […]
Resazurin Assay: Was used to measure the metabolic activity and has the advantage of being non-toxic so constructs can be assessed before and several times after treatment. […]

Row | SMILES | Effect of additive in culture medium on construct viability | Effect of additive in culture medium on construct viability (listed as αT) | Effect of additive in culture medium on construct viability (listed as QVD)
1 | Cc1c(C)c2c(c(C)c1O)CC[C@@](C)(CCC[C@H](C)CCC[C@H](C)CCCC(C)C)O2 [α-tocopherol] | improved viability | significant improvement | 
2 | CC(C)[C@H](NC(=O)c1ccc2ccccc2n1)C(=O)N[C@@H](CC(=O)O)C(=O)COc1c(F)cccc1F [Q-VD-OPH, quinoline-Val-Asp-difluorophenoxymethyl ketone] | improved viability |  | significant improvement
